Data set [1] relates to human gastric epithelial (GES-1) cells.
A further data set has as its system porcine IPEC-1. Particulars: pig intestine cell (IPEC-1); cited from earlier work.

Each structure is given as a SMILES string.

In the case of `CC(=O)OC[C@]12[C@H](O)C(=O)C(C)=C[C@H]1O[C@@H]1[C@H](O)C[C@@]2(C)[C@]12CO2` [15-ADON, 15-acetyldeoxynivalenol], in data set [1], the “Dm (median-effect dose, IC50 value)” value stood at 4.77 ppm; the “EC30 (effective concentration of 30% inhibiting cell viability rate)” value is reported as 1.13; the “EC70 (effective concentration of 70% inhibiting cell viability rate)” value was determined as 20.05; the “m (slope of median-effect curves)” value was found to be 0.59.
On to `CC1=C[C@H]2O[C@@H]3[C@H](O[C@@H]4O[C@H](CO)[C@@H](O)[C@H](O)[C@H]4O)C[C@](C)([C@@]2(CO)[C@H](O)C1=O)[C@]31CO1` [D3G, deoxynivalenol-3-glucoside], for which the “toxicity to GES-1 cells” value in data set [1] is “no toxicity”.
As to `CC1=C[C@H]2O[C@@H]3[C@H](O)C[C@](C)([C@@]2(CO)[C@H](O)C1=O)[C@]31CO1` [DON, deoxynivalenol], in data set [1], the “Dm (median-effect dose, IC50 value)” value was 2.99 ppm; the “EC30 (effective concentration of 30% inhibiting cell viability rate)” value is given as 0.75; the “EC70 (effective concentration of 70% inhibiting cell viability rate)” value was 11.99; the “m (slope of median-effect curves)” value was found to be 0.61.
In the case of `CC1=C[C@H]2O[C@@H]3[C@H](O)[C@@H](O)[C@](C)([C@@]2(CO)[C@H](O)C1=O)[C@]31CO1` [NIV, Nivalenol], in data set [1], the “Dm (median-effect dose, IC50 value)” value was found to be 0.58 ppm; the “EC30 (effective concentration of 30% inhibiting cell viability rate)” value turned out to be 0.08; the “EC70 (effective concentration of 70% inhibiting cell viability rate)” value stood at 4.36; the “m (slope of median-effect curves)” value came to 0.42.
Regarding `CC(=O)O[C@@H]1[C@@H](O)[C@H]2O[C@@H]3C=C(C)C(=O)[C@@H](O)[C@]3(CO)[C@]1(C)[C@]21CO1` [FX, Fusarenon-X], in data set [1], the “Dm (median-effect dose, IC50 value)” value is listed as 0.85 ppm; the “EC30 (effective concentration of 30% inhibiting cell viability rate)” value is 0.15; the “EC70 (effective concentration of 70% inhibiting cell viability rate)” value came to 4.97; the “m (slope of median-effect curves)” value came out at 0.48.
As for `CC(=O)O[C@@H]1C[C@]2(C)[C@@]3(CO)[C@H](O)C(=O)C(C)=C[C@H]3O[C@H]1[C@@]21CO1` [3-ADON, 3-acetyldeoxynivalenol], in data set [1], the “relative potency in reducing cell viability (fold less)” value is recorded as “ten-fold”. The “effect on cell viability” value in data set [1] (human) is listed as “neither D3G nor 3-ADON decreased any cell viability”. Further, the “toxicity relative to DON” value in the data set with porcine IPEC-1 was “less toxicity than DON”.

The values are drawn from publication PMC5371851 (Toxins, 2017).
